Experimental data published in US20180249709A1, “HERBICIDE COMPOSITIONS AND METHODS FOR CONTROLLING GROWTH OF PLANTS OF THE BUCKTHORN FAMILY” (priority 2016, published 2018).
“Also recorded” adds a separate entry of the source.

Columns and labels:
Buckthorn seeds = experiment: Seed germination of Buckthorn seeds on filter paper in Petri plates; type: in vivo
Method: Juglone was purchased from Sigma Aldrich and diluted in sterile water to a 10^−3 M stock solution for 24 hours at 40° C., then further diluted to obtain 10^−4, 10^−5 and 10^−6 M solutions. Seeds were previously collected from 3 different sites (Site 1: Iroquois Shoreline Woods Park in Oakville, Ontario, Canada; Site 2: Ignatius Jesuit Centre in Guelph, Ontario, Canada, and Site 3: Snyder Flats Conservation Area in Bloomingdale, Ontario, Canada) and then placed into cold stratification. For this experiment, seeds were removed from 40 day cold stratification and surface sterilization was done for 30 s in 3% hydrogen peroxide followed by two one minute sterile water rinses. Sheets of 90 mm filter paper were placed on the bottom of Petri plates, followed by 15 seeds, and then topped with another sheet of filter paper. A pipette then dispensed 2 ml of treatment or control onto each plate directly onto the top filter paper, thereby wetting the seeds and bottom filter paper as well. Five reps (plates) were done for each site at each treatment. Plates were then placed into Ziploc bags (to maintain humidity) and kept at 24° C. in the dark. Plates were checked every day for germination (i.e. emergence of the radicle). The number of germinated seeds per plate was recorded daily. Using Microsoft Excel, a graph was created to show the average number of germinated seeds per group with standard error. Statistics were done using JMP statistical software.

Buckthorn seed radicles = experiment: Radicle elongation of germinated Buckthorn seeds over 7 days; type: in vivo; settings: for radicle growth between treatments of various concentrations: MANOVA repeated measures
Method: From the seed germination study (above), the first five (5) germinated Buckthorn seeds from each group (same treatment, same site) were set aside for radicle elongation measurements (see FIG. 6). These five were placed together in new Petri plates between two new filter papers dosed with treatment (i.e. same filter setup & treatment as germination study). For each of the 75 germinated seeds (5×15 groups), the initial length of the emerged radicle was measured. The length of the radicle was then re-measured daily for a total of 7 days. […] Therefore, on Day 7 all radicles were also sacrificed and scanned on an Epson® flatbed scanner then analyzed off-label by WinRhizo™ software, which measured the full length as “Brother 1” of the inputted “root”. Using Microsoft Excel, a graph was created to show the average length of radicle 7 days after emergence with standard error, when measured by hand. WinRhizo Day 7 measurements were compared to hand-measured Day 7 measurements to check for accuracy. Another graph was created to show the average growth of the radicle over time. Statistics were done using JMP™ statistical software.

For `O=C1C=CC(=O)c2c(O)cccc21` [Juglone, 5-hydroxy-1,4-naphthalenedione], the “percentage of Buckthorn seeds that germinated, treatment vs control” value (Buckthorn seeds; 10^-5 M Juglone) was “consistently significantly lower”, the “percentage of Buckthorn seeds that germinated, treatment vs control” value (Buckthorn seeds; 10^-6 M Juglone) was “consistently significantly lower; also recorded: significantly effective in preventing seed germination” and the “overall effect on germination, difference between the treatments” value (Buckthorn seeds; Day 12, Least Squares Model, control and 10^-3 to 10^-6 M Juglone, F(4,64)=6.2, p=0.003) was “significant difference”. For the same molecule, the “percentage of Buckthorn seeds that germinated, trend with concentration” value (Buckthorn seeds; Juglone concentration increased above 10^-5 M) was “appeared to increase”, the “colour / appearance of radicles vs control” value (Buckthorn seed radicles; 10^-3 M Juglone, Day 7) was “darker brown/black; also recorded: possible damaging effect” and the radicle elongation (Buckthorn seed radicles; 10^-3 M Juglone, Ignatius Jesuit Centre site, MANOVA, hand-measured) was “limited radicle elongation significantly”. The “growth of radicles vs controls” value (Buckthorn seed radicles; 10^-3 M Juglone, all three sites, seven days, T-tests) was “significantly reduced growth; also recorded: significantly reduced radicle elongation”, the “growth of radicles vs controls” value (Buckthorn seed radicles; 10^-4 M Juglone, Iroquois Shoreline Woods Park site and Snyder Flats Conservation Area site only, T-tests) was “significantly reduced growth” and the “radicle growth among the treatments (net WinRhizo values)” value (Buckthorn seed radicles; ANOVA 2-way with replication, p=0.0005) was “significant difference in growth”. For the same molecule, the “radicle growth between treatments of various concentrations” value (shortened to “radicle growth between treatments”) (Buckthorn seed radicles; Ignatius Jesuit Centre site, hand-measured, F(4,19)=0.73, p=0.0264) was “significant difference”, the “radicle growth between treatments” value (Buckthorn seed radicles; Iroquois Shoreline Woods Park site, hand-measured, F(4,20)=0.38, p=0.1485) was “no significant difference” and the “radicle growth between treatments” value (Buckthorn seed radicles; Snyder Flats Conservation Area site, hand-measured, F(4,19)=0.17, p=0.5339) was “no significant difference”. The “growth of radicles vs controls” value (Buckthorn seed radicles; more dilute concentrations (than 10^-4 M), seed from any site) was “Growth reduction was not achieved”.
